Test results as given in ChEMBL document CHEMBL1145617, “Identification of acridinyl hydrazides as potent aspartic protease inhibitors” (Bioorg Med Chem Lett, 2008).

How the values were obtained:
Plasmepsin II = Plasmepsin II (Plasmodium falciparum, UniProt P46925); experiment: Inhibition of Plasmodium falciparum plasmepsin-2 by FRET assay
Cathepsin D = Cathepsin D (Homo sapiens, UniProt P07339); experiment: Inhibition of human cathepsin D by FRET assay
Chain of Cathepsin D (P07339 65-162 limits assumed): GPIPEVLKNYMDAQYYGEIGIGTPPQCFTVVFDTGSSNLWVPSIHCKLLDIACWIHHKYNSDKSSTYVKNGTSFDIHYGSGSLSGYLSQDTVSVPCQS
Chain of Cathepsin D (P07339 169-412 limits assumed): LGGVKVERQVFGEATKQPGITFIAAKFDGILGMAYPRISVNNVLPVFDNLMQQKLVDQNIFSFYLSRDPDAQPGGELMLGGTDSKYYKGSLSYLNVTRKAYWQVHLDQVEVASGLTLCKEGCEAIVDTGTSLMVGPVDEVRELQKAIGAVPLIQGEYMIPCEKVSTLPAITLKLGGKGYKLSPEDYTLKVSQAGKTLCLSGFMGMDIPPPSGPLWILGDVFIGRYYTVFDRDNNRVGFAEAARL

Chain of Plasmepsin II (P46925 whole entry): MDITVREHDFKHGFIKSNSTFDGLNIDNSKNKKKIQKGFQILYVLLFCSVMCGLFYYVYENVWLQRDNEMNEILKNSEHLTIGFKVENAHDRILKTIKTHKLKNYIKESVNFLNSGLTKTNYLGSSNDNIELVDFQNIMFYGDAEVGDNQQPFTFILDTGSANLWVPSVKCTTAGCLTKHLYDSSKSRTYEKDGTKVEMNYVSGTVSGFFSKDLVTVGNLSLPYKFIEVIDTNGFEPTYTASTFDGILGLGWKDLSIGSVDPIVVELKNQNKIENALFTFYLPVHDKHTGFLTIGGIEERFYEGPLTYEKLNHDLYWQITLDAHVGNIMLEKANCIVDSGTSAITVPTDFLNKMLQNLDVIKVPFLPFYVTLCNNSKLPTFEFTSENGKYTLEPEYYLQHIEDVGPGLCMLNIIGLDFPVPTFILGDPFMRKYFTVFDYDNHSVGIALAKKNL

Row | IC50 (Plasmepsin II) [nM] | IC50 (Cathepsin D) [nM] | Structure (SMILES)
1 | 0.13 | 0.5 | Cc1ccc2c(NNC(=O)c3ccccc3O)c3ccccc3nc2c1C
2 | 4 | 9 | Cc1cccc(C(=O)NNc2c3ccccc3nc3c(C)c(C)ccc23)c1

Row | Structure (SMILES) | IC50 (Plasmepsin II) [nM] | IC50 (Cathepsin D) [nM]
3 | CC(C)CC(=O)N[C@H](C(=O)N[C@H](C(=O)N[C@@H](CC(C)C)[C@@H](O)CC(=O)N[C@@H](C)C(=O)N[C@@H](CC(C)C)[C@@H](O)CC(=O)O)C(C)C)C(C)C [PEPSTATIN] | 0.68 | 
